In one test the target is T1, PLA2G16 (Homo sapiens, UniProt P53816).
T1 construct: Hexa-His (N); made in house; host or cells: E. coli BL21(DE3)
T1 sequence (P53816 1-162): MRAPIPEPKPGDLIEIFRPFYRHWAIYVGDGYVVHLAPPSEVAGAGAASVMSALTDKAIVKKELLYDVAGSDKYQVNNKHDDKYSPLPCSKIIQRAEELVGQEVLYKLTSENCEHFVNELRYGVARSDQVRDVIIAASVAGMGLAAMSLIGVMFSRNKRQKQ
Description: Enzyme activity assay for PLA2G16 (Red/Green BODIPY PC-A2 fluorescence). It is filed as biochemical. The following applies: His-tagged PLA2G16, 4 min pre-incubation, compound 2 nM to 50 μM; first symbol in parentheses. The text has this: Purification and Enzyme Activity Assay for PLA2G16
A cDNA for PLA2G16 (NM_007069) was custom-synthesized by Genscript (Piscataway, USA) and inserted into a pET-based bacterial expression vector [Moffatt, B. A. and Studier, F. W. (1986) J. Mol. Biol. 189, 113-130; Rosenberg, A. H., Lade, B. N., Chui, D., Lin, S., Dunn, J. J., and Studier, F. W. (1987) Gene 56, 125-135], enabling the expression of N-terminally Hexa-His-tagged PLA2G16. E. coli BL21(DE3) (Agilent) were transformed with pET-His-PLA2G16 according to the manufacturer's instructions and plated on Carbenicillin-containing agar plates (final concentration: 100 μg/mL). A single clone was inoculated in 100 mL LB medium supplemented with 100 μg/mL Carbenicillin and the inoculated culture was grown at 37° C. overnight in a rotary shaker. On the next day, the bacterial culture was diluted in LB medium supplemented with 100 μg/mL Carbenicillin (30 mL overnight culture in 800 mL total culture volume). Bacteria were grown at 37° C. until the OD600 reached 0.6. Gene expression was induced by addition of 1 mM isopropyl-β-D-thiogalactopyranosid (IPTG) for 2 h at 18° C. Subsequently, bacteria were harvested by centrifugation (15 min; 10,000×g; 4° C.) and frozen at −80° C. The bacterial pellet was resuspended in Buffer A (50 mM Tris/HCl pH 7.5, 500 mM NaCl, 5% glycerol, 5 mM β-Mercaptoethanol and 1 mM PMSF) and lysed by addition of 1 mg/mL lysozyme (Sigma Aldrich) and 100 μg/mL DNasel-(Roche). The sample was incubated at 30° C. for 30 min to allow lysis to occur. Then, the lysate was cleared by centrifugation (15,000×g, 15 min, 4° C.) and incubated with 1.5 mL Ni-NTA agarose suspension (Qiagen) for 60 min at 4° C. The Ni-NTA agarose was washed with 10 mL Buffer A. Bound protein was eluted by applying a manual gradient of Buffer A supplemented with increasing concentrations of imidazole (Sigma Aldrich; 25/50/75/100/250 mM). Purified fractions were analyzed by SDS-PAGE followed by Coomassie staining to assess the purity.
Activity of the protein was assessed as follows:
Red/Green BODIPY® PC-A2 (Invitrogen, 1 mM in DMSO) was mixed with equal volumes of 1,2-Dioleoyl-sn-glycero-3-phosphocholine (DOPC; Sigma Aldrich, 10 mM in Ethanol) and 1,2-Dioleoyl-sn-glycero-3-phospho-rac-(1-glycerol) (DOPG; Sigma Aldrich, 10 mM in Ethanol) and 0.5 volumes of Cholesterol (CHOL; Sigma Aldrich, 10 mM in Ethanol) and vortexed for 5 s. The mixture (Red/Green BODIPY® PC-A2/DOPC/DOPG/CHOL) was diluted 1:91.4 in activity assay buffer (50 mM Tris/HCl pH 8.5, 100 mM NaCl) using a small-orifice pipette tip under constant vortexing. In the following, this preparation will be referred to as the “substrate solution”.
In order to evaluate their inhibitory potential, compounds were dissolved at 10 mM concentration in DMSO and directly spotted into assay plates (Corning, Cat. No. 3576) using acoustic liquid transfer (Labcyte Echo 525). Each compound was spotted at increasing concentrations, ranging from 2 nM to 50 μM (concentration in the final assay volume). 50 μl of PLA2G16 enzyme solution (diluted in activity buffer, supplemented with 5 mM L-Glutathione; Sigma Aldrich) was pre-incubated with compounds for 4 min., followed by addition of 50 μl of substrate solution. Fluorescence was recorded immediately after substrate addition for a total time of 10 min. using a SpectraMax M5 multimode reader (Excitation wavelength: 480 nm, emission wavelength: 530 nm). The relative increase of fluorescence over time is referred to as the enzyme activity. Half-maximal inhibitory concentrations (IC50) were derived by non-linear regression analysis using the drc package in R (R Development. Core Team, 2005).

For test [1], the system named is picornaviruses (CVB1, HRV-A2, HRV-A23, EV-68). Description: Anti-picornavirus cytopathic effect (CPE) reduction assay on HeLa H1 cells. To be noted: 48 h, category from averaging EC50 values of four picornaviruses (CVB1, HRV-A2, HRV-A23, EV68), second symbol in parentheses. It is filed as cell-based. The protocol: Anti-Picornavirus Assay in Mammalian Cell Culture
The antiviral activity of selected compounds was tested using a cytopathic effect (CPE) reduction assay on HeLa H1 cells (ATCC CRL-1958). Briefly, cells were seeded in 96-well dishes (2×10^4 cells/well) in DMEM medium (Life technologies) supplemented with 10% FBS and PenStrep solution (100 U/mL Penicillin and 100 μg/mL streptomycin) and incubated at 37° C., 5% CO2 overnight. The next day, cells were pre-treated with serial dilutions of the compound in DMEM medium supplemented with 2% FBS and PenStrep for 2 h at 37° C., 5% CO2. Next, cells were infected with virus (CVB1, HRV-A2, HRV-A23, EV-68) at an multiplicity of infection (MOI) which results in a complete virus-induced CPE within 2 days in control wells (infected and vehicle-treated). After 48 h, supernatants were aspirated and 50 μl/well of CellTiterBlue reagent (Promega) diluted 1:5 in DMEM+2% FBS, was added to the cells. Plates were returned to the incubator and allowed to develop for 1.5 h. After that, plates were equilibrated to RT and subsequently, fluorescence was recorded (Excitation wavelength: 560 nm; emission wavelength: 590 nm) using a SpectraMax M5 multimode plate reader. Viability of cells was calculated according to the formula: V=(RFUCpd−RFUVeh/(RFUM−RFUVeh), where RFUCpd refers to infected and compound-treated cells, RFUVeh to infected and vehicle-treated cells and RFUM to uninfected and vehicle treated cells. Half-maximal effective concentrations (EC50) were calculated by non-linear regression analysis using the drc package in R (R Development. Core Team, 2005). EC50 categories as presented in Table 2 were calculated by averaging the EC50 values from four picornaviruses (CVB1, HRV-A2, HRV-A23, EV68).

In general, IC50 refers to the concentration that gives 50% inhibition. One may read the EC50 as the concentration needed to bring the measured effect to its halfway point. As for `O=C(NC1CC1)C(=O)[C@H]1CN(Cc2ccccc2)C(=O)[C@@H]1c1ccccc1` (racemic) [FP-99, Rac-2-[(3R,4S)-1-benzyl-5-oxo-4-phenylpyrrolidin-3-yl]-N-cyclopropyl-2-oxoacetamide], the IC50 on PLA2G16 is less than 1000 nM. The EC50 in test [1] was 1000 to 10000 nM.
For `Cn1ncnc1CN1C[C@H](C(=O)C(=O)NC2CC2)[C@@H](Cc2ccccc2)C1=O` (racemic) [FP-42, Rac-2-[(3R,4R)-4-benzyl-1-[(1-methyl-1H-1,2,4-triazol-5-yl)methyl]-5-oxopyrrolidin-3-yl]-N-cyclopropyl-2-oxoacetamide] the same measures were less than 1000 nM and 1000 to 10000 nM.
For `Cc1cc(CN2C[C@H](C(=O)C(=O)NC3CC3)[C@@H](Cc3ccccc3)C2=O)no1` (racemic) [FP-41, Rac-2-[(3R,4R)-4-benzyl-1-[(5-methyl-1,2-oxazol-3-yl)methyl]-5-oxopyrrolidin-3-yl]-N-cyclopropyl-2-oxoacetamide] the same measures were less than 1000 nM and less than 1000 nM.
For `CC(F)(F)CNC(=O)C(=O)[C@H]1CNC(=O)[C@@H]1C1CCCCC1` (racemic) [FP-12, Rac-2-[(3R,4R)-4-cyclohexyl-5-oxopyrrolidin-3-yl]-N-(2,2-difluoropropyl)-2-oxoacetamide] the same measures were less than 1000 nM and less than 1000 nM.
Consider `Cc1cc(CN2C[C@H](C(=O)C(=O)NC(C)C)[C@@H](c3ccccc3)C2=O)no1` (racemic) [FP-101, Rac-2-[(3R,4S)-1-[(5-methyl-1,2-oxazol-3-yl)methyl]-5-oxo-4-phenylpyrrolidin-3-yl]-2-oxo-N-(propan-2-yl)acetamide], for which, at PLA2G16, the IC50 is less than 1000 nM. In test [1], the EC50 is 1000 to 10000 nM.
The like results for `CC(C)ONC(=O)C(=O)[C@H]1CNC(=O)[C@@H]1Cc1ccccc1` (racemic) [FP-8, Rac-2-[(3R,4R)-4-benzyl-5-oxopyrrolidin-3-yl]-2-oxo-N-(propan-2-yloxy)acetamide] were, in that order, less than 1000 nM and 1000 to 10000 nM.
In the case of `CCNC(=O)C(=O)[C@H]1CNC(=O)[C@@H]1Cc1ccc(F)cc1` (racemic) [FP-30, Rac-N-ethyl-2-[(3R,4R)-4-[(4-fluorophenyl)methyl]-5-oxopyrrolidin-3-yl]-2-oxoacetamide], the IC50 at PLA2G16 is less than 1000 nM. Further, in test [1], the EC50 was less than 1000 nM.
Consider `CNC(=O)CN1C[C@H](C(=O)C(=O)NCC(C)C)[C@@H](Cc2ccccc2)C1=O` (racemic) [FP-43, Rac-2-[(3R,4R)-4-benzyl-1-[(methylcarbamoyl)methyl]-5-oxopyrrolidin-3-yl]-N-(2-methylpropyl)-2-oxoacetamide], for which the IC50 at PLA2G16 is less than 1000 nM. In addition, in test [1], the EC50 is 1000 to 10000 nM.
`COCCN1C[C@H](C(=O)C(=O)NC2CC2)[C@@H](Cc2ccccc2)C1=O` (racemic) [FP-39, Rac-2-[(3R,4R)-4-benzyl-1-(2-methoxyethyl)-5-oxopyrrolidin-3-yl]-N-cyclopropyl-2-oxoacetamide]: at PLA2G16, the IC50 is less than 1000 nM. In test [1], the EC50 was in the range of 1000 to 10000 nM.
On to `CC(F)(F)CNC(=O)C(=O)[C@@H]1CNC(=O)[C@H]1c1ccccc1` (single isomer, unassigned) [FP-87], for which the IC50 at PLA2G16 was 1000 to 10000 nM. Also, the EC50 in test [1] is greater than 10000 nM.
For `CC(C)CNC(=O)C(=O)[C@H]1CNC(=O)[C@@H]1c1ccccc1` (racemic) [FP-13, Rac-N-(2-methylpropyl)-2-oxo-2-[(3R,4S)-5-oxo-4-phenylpyrrolidin-3-yl]acetamide] the same measures were less than 1000 nM and less than 1000 nM.
As for `CCCNC(=O)C(=O)[C@H]1CNC(=O)[C@@H]1c1ccccc1` (racemic) [FP-18, Rac-2-oxo-2-[(3R,4S)-5-oxo-4-phenylpyrrolidin-3-yl]-N-propylacetamide], at PLA2G16, the IC50 is less than 1000 nM. The EC50 in test [1] was in the range of 1000 to 10000 nM.
Turning to `O=C(NC1CC1)C(=O)[C@H]1CN(c2ncccn2)C(=O)[C@@H]1Cc1ccccc1` (racemic) [FP-58, Rac-2-[(3R,4R)-4-benzyl-5-oxo-1-(pyrimidin-2-yl)pyrrolidin-3-yl]-N-cyclopropyl-2-oxoacetamide], at PLA2G16, the IC50 was less than 1000 nM. The EC50 in test [1] was 1000 to 10000 nM.
As for `O=C(NC1CCCC1)C(=O)[C@H]1CNC(=O)[C@@H]1c1ccccc1` (racemic) [FP-79, Rac-N-cyclopentyl-2-oxo-2-[(3R,4S)-5-oxo-4-phenylpyrrolidin-3-yl]acetamide], the IC50 on PLA2G16 was less than 1000 nM. For the same compound, in test [1], the EC50 was less than 1000 nM.
Take `O=C(NC1CC1)C(=O)[C@H]1CN(c2ccncn2)C(=O)[C@@H]1Cc1ccccc1` (racemic) [FP-61, Rac-2-[(3R,4R)-4-benzyl-5-oxo-1-(pyrimidin-4-yl)pyrrolidin-3-yl]-N-cyclopropyl-2-oxoacetamide]: the IC50 on PLA2G16 was less than 1000 nM. The EC50 in test [1] fell in the range of 1000 to 10000 nM.
For `O=C(NC1CC1)C(=O)[C@H]1CN(CC(F)F)C(=O)[C@@H]1Cc1ccccc1` (racemic) [FP-49, Rac-2-[(3R,4R)-4-benzyl-1-(2,2-difluoroethyl)-5-oxopyrrolidin-3-yl]-N-cyclopropyl-2-oxoacetamide] the same measures were less than 1000 nM and less than 1000 nM.
`O=C(NC1CC1)C(=O)[C@H]1CN(c2cncnc2)C(=O)[C@@H]1Cc1ccccc1` (racemic) [FP-54, Rac-2-[(3R,4R)-4-benzyl-5-oxo-1-(pyrimidin-5-yl)pyrrolidin-3-yl]-N-cyclopropyl-2-oxoacetamide]: the IC50 on PLA2G16 was less than 1000 nM. The EC50 in test [1] is less than 1000 nM.
Turning to `NC(=O)c1ccc(CN2C[C@H](C(=O)C(=O)NC3CC3)[C@@H](Cc3ccccc3)C2=O)cc1` (racemic), the IC50 at PLA2G16 was less than 1000 nM.
